Data: US20040106793A1, “Oxazoles for treating cytokine mediated diseases” (SmithKline Beecham Corporation, priority 1993, published 2004)

test system: IL-1 produced by human monocytes; test: Interleukin 1 (IL-1) production by LPS-stimulated human monocytes; format: cell-based; conditions: human peripheral blood monocytes, compound 1 h before lipopolysaccharide (50 ng/ml), 24 h at 37° C.; IL-1 in supernatant by bioassay (EL-4) or ELISA
Description: Human peripheral blood monocytes were isolated and purified from either fresh blood preparations from volunteer donors, or from blood bank buffy coats, according to the procedure of Colotta et al, J Immunol, 132, 936 (1984). These monocytes (1×10^6) were plated in 24-well plates at a concentration of 1-2 million/ml per well. The cells were allowed to adhere for 2 hours, after which time non-adherent cells were removed by gentle washing. Test compounds were then added to the cells for 1 h before the addition of lipopolysaccharide (50 ng/ml), and the cultures were incubated at 37° C. for an additional 24 h. At the end of this period, culture supernatants were removed and clarified of cells and all debris. Culture supernatants were then immediately assayed for IL-1 biological activity, either by the method of Simon et al., J. Immunol. Methods, 84, 85, (1985) (based on ability of IL-1 to stimulate a Interleukin 2 producing cell line (EL-4) to secrete IL-2, in concert with A23187 ionophore) or the method of Lee et al., J. ImmunoTherapy, 6 (1), 1-12 (1990) (ELISA assay).

Row | Compound | inhibition of in vitro IL-1 produced by human monocytes
1 | COc1cccc(-c2oc(C)nc2-c2ccncc2)c1 [Example 1, 5-(3-Methoxyphenyl)-2-methyl-4-(4-pyridyl)oxazole] | inhibitors
2 | Cc1nc(-c2ccncc2)c(-c2ccc(F)cc2)o1 [Example 2, 5-(4-Fluorophenyl)-2-methyl-4-(4-pyridyl)oxazole] | inhibitors
3 | Fc1ccc(-c2ncoc2-c2ccncc2)cc1 [Example 7, 4-(4-Fluorophenyl)-5-(4-pyridyl)oxazole] | inhibitors
